Test in all cases: NCI-60 cell line screen, 48 h
For test [1], the system named is A549 NSCLC.
Test [2] relates to COLO 205 colon.
Test [3] concerns EKVX NSCLC.
In test [4] the test system is HOP-62 NSCLC.
Test [5] concerns LOX IMVI melanoma.
The test system of test [6] is M14 melanoma.
Test [7] relates to MOLT-4 leukemia.
Test [8] relates to NCI-H460 lung.
Test [9] deals with SR leukemia.
The test system of test [10] is TK-10 renal.

From PubChem BioAssay (NCI) come the findings set out here.

Each structure is given as a SMILES string. Values joined by “and” are separate entries in the source; they are usually repeats but may differ in a detail not shown here. Equal values may be shown once.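 Where inhibition never reached the appropriate level, the endpoint shown equals the highest concentration tested. Otherwise, values were interpolated linearly from a five-concentration, 48-hour dose response in 96-well plates. GI50 marks 50% less growth. At the TGI there is no net growth.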

In the case of `Oc1ccc(N=Nc2ccc(Cl)cc2)cc1`, the TGI in test [1] is 31.3 µM; in test [2], 33.4 µM; in test [3], 31.8 µM; in test [4], 35.6 µM; in test [5], 24.6 µM; in [6] it was 23.3 µM. Besides, the TGI in test [7] worked out at 51.7 µM; in [8], 34.2 µM; in test [9], 54.8 µM; in [10], 33.8 µM.

Regarding `COc1cc2c(cc1C)NC(=O)/C2=C\c1cc(OC)c(OC)c(OC)c1`, the GI50 in test [1] was more than 100 µM; in [2], more than 100 µM; in test [3], more than 100 µM; in test [4], 22.1 µM; in [5], more than 100 µM; in [6] it was more than 100 µM. In addition, the GI50 in test [7] is 12.5 µM; in test [8] it was more than 100 µM; in test [9], 11.5 µM; in test [10], 93.7 µM. Moreover, the TGI in test [1] was more than 100 µM; in test [2] it was more than 100 µM; in test [3], more than 100 µM; in test [4], 53.9 µM; in [5] it was more than 100 µM; in [6], more than 100 µM. Moreover, the TGI was 38.8 µM in [7], more than 100 µM in test [8], 47.4 µM in test [9] and more than 100 µM in test [10].

Regarding `O=C(Oc1ccc(O)c2c(=O)n3c(cc12)[nH]c1ccccc13)c1ccccc1`, the GI50 is 24 µM in test [1]; 19.9 µM in [2]; 24.3 µM in test [3]; 22.4 µM in [4]; 4.77 µM in test [5]; 17.9 µM in test [6]. Besides, the GI50 is 16.4 µM in test [7], 81.7 µM in test [8], 25.9 µM in test [9] and 18.8 µM in test [10]. In addition, the TGI in test [1] is 66.8 µM; in [2] it was 45.3 µM; in [3], more than 100 µM; in test [4], 54.5 µM; in test [5] it was 20.1 µM; in test [6], 37 µM. For the same molecule, the TGI was 62.6 µM in test [7], more than 100 µM in test [8], 82.2 µM in [9] and 40.8 µM in [10].

Consider `CCC(=O)c1cn(C)c(=O)c2ccccc12`, for which the TGI in test [1], in test [2], in [3], in test [4], in test [5] and in [6] was more than 100 µM each time. For the same molecule, the TGI in [7], in test [8], in test [9] and in test [10] was more than 100 µM in each case.

On to `O=[N+]([O-])c1ccc2[nH]cc(-c3c4ccsc4cc4[nH]c5ccc([N+](=O)[O-])cc5c34)c2c1`, for which the GI50 in test [1] is 1.12 µM; in test [2], 0.796 µM; in test [3], 1.56 µM; in [4], 1.13 µM; in [5], 0.834 µM; in [6], 0.527 µM. Moreover, the GI50 in test [7] was 1.27 µM; in test [8], 0.922 µM; in [9], 0.419 µM; in [10], 2.85 µM. Besides, the TGI amounted to 5.4 µM in [1]; 2.42 µM in [2]; 11.4 µM in [3]; 9.25 µM in test [4]; 5.48 µM in test [5]; 1.39 µM in test [6]. The TGI in test [7] was 5.5 µM; in test [8] it was 4.13 µM; in test [9], 33.3 µM; in test [10], 18.5 µM.

On to `O=c1ccn(C2OC(CO)C(O)C2O)c(=O)[nH]1` (centres undefined), for which the GI50 in [1] is more than 1000 µM; in test [2] it was more than 1000 µM; in test [3], more than 1000 µM; in test [4] it was more than 1000 µM; in [5] it was more than 1000 µM; in test [7], 832 µM and > 10 µM. Further, the GI50 in test [8], in test [9] and in test [10] was more than 1000 µM each time. Also, the TGI in [1], in test [2], in test [3], in test [4], in test [5] and in test [6] was more than 1000 µM each time. Also, the TGI in test [7], in [8], in [9] and in test [10] was more than 1000 µM throughout.

Turning to `CC(C)=CC(C(O)c1ccccc1)S(=O)(=O)c1nccn1C` (centres undefined), the TGI in test [1], in [2], in [3], in test [4], in test [5] and in test [6] was more than 100 µM in each case. Besides, the TGI in test [7], in [8], in test [9] and in test [10] was more than 100 µM throughout.

In the case of `NC(=O)c1c[se]c(C2OC(CO)C(O)C2O)n1` (centres undefined), the TGI in test [1], in test [2], in test [3], in test [4], in test [5] and in [6] was more than 100 µM each time. Besides, the TGI in test [7] is more than 49 µM; in test [8] it was more than 100 µM; in test [9] it was more than 100 µM; in test [10] it was more than 100 µM.
